≈ marks a conversion by molar mass, not a printed value. Calls of active or inactive are those of the source. The rule behind the calls is not given here. Non-standard residues stand in square brackets, D forms with d. Residues, ends and D or L forms follow the SMILES beside them. ξ: configuration not given here. ξY = NC(Cc1ccc(O)cc1)C(=O)O; ξR = N=C(N)NCCCC(N)C(=O)O; ξD = NC(CC(=O)O)C(=O)O; ξN = NC(=O)CC(N)C(=O)O; ξI = CCC(C)C(N)C(=O)O; ξK = NCCCCC(N)C(=O)O; ξV = CC(C)C(N)C(=O)O
Tests used:
[1] = Hemolytic activity in human RBC incubated for 4 hrs; type: toxicity, cell-based; conditions: erythrocyte
Escherichia coli [2] = assay: Antimicrobial activity against Escherichia coli W3110 incubated for 16 to 20 hrs in 12.5 % muller hinton medium by broth microdilution method; type: functional; conditions: time 16-20 hrs
Escherichia coli [3] = assay: Antimicrobial activity against Escherichia coli W3110 incubated for 16 to 20 hrs in full muller hinton medium by broth microdilution method; type: functional; conditions: time 16-20 hrs
Acinetobacter baumannii [4] = assay: Antimicrobial activity against Acinetobacter baumannii ATCC 19606 incubated for 16 to 20 hrs in 12.5 % muller hinton medium by broth microdilution method; type: functional; conditions: time 16-20 hrs
Pseudomonas aeruginosa = assay: Antimicrobial activity against Pseudomonas aeruginosa PAO1 incubated for 16 to 20 hrs in full muller hinton medium by broth microdilution method; type: functional; conditions: time 16-20 hrs
Staphylococcus aureus = assay: Antimicrobial activity against methicillin-resistant Staphylococcus aureus COL incubated for 16 to 20 hrs in full muller hinton medium by broth microdilution method; type: functional; conditions: time 16-20 hrs
Escherichia coli [5] = assay: Bacteriostatic activity against Escherichia coli at 8 times MIC in full muller hinton medium by Time-kill assay; type: functional, organism-based
Klebsiella pneumoniae [6] = assay: Bacteriostatic activity against Klebsiella pneumoniae assessed as membrane perturbation at 8 times MIC in full muller hinton medium by transmission electron microscopic analysis; type: functional, organism-based
Klebsiella pneumoniae [7] = assay: Bacteriostatic activity against Klebsiella pneumoniae assessed as detachment of inner membrane from outer membrane by measuring a large void at 8 times MIC in full muller hinton medium by transmission electron microscopic analysis; type: functional, organism-based
Escherichia coli [8] = assay: Bacteriostatic activity against Escherichia coli assessed as detachment of inner membrane from outer membrane by measuring a large void at 8 times MIC in full muller hinton medium by transmission electron microscopic analysis; type: functional, organism-based
Acinetobacter baumannii [9] = assay: Antimicrobial activity against Acinetobacter baumannii ATCC 19606 incubated for 16 to 20 hrs in full muller hinton medium by broth microdilution method; type: functional; conditions: time 16-20 hrs
Klebsiella pneumoniae [10] = assay: Antimicrobial activity against Klebsiella pneumoniae NCTC 418 incubated for 16 to 20 hrs in full muller hinton medium by broth microdilution method; type: functional; conditions: time 16-20 hrs
Klebsiella pneumoniae [11] = assay: Bacteriostatic activity against Klebsiella pneumoniae at 8 times MIC in full muller hinton medium by Time-kill assay; type: functional, organism-based
Klebsiella pneumoniae [12] = assay: Bacteriostatic activity against Klebsiella pneumoniae assessed as small intracellular vesicles at 8 times MIC in full muller hinton medium by transmission electron microscopic analysis; type: functional, organism-based
Escherichia coli [13] = assay: Bacteriostatic activity against Escherichia coli assessed as membrane perturbation at 8 times MIC in full muller hinton medium by transmission electron microscopic analysis; type: functional, organism-based
Escherichia coli [14] = assay: Bacteriostatic activity against Escherichia coli assessed as small intracellular vesicles at 8 times MIC in full muller hinton medium by transmission electron microscopic analysis; type: functional, organism-based

SMILES | MHC [1] [µg/mL] | MIC (Escherichia coli [2]) [µg/mL] | MIC (Escherichia coli [3]) [µg/mL] | MIC (Acinetobacter baumannii [4]) [µg/mL] | MIC (Pseudomonas aeruginosa) [µg/mL] | MIC (Staphylococcus aureus) [µg/mL] | Activity (Escherichia coli [5]) | Activity (Klebsiella pneumoniae [6]) | Activity (Klebsiella pneumoniae [7]) | Activity (Escherichia coli [8]) | MIC (Acinetobacter baumannii [9]) [µg/mL] | MIC (Klebsiella pneumoniae [10]) [µg/mL] | Activity (Klebsiella pneumoniae [11]) | Activity (Klebsiella pneumoniae [12]) | Activity (Escherichia coli [13]) | Activity (Escherichia coli [14])
CCC(C)C(NC(=O)C(CCCNC(=N)N)NC(=O)[C@H](CCCNC(=N)N)NC(=O)[C@@H]1CCCN1C(=O)[C@@H]1CCCN1C(=O)[C@H](CCCNC(=N)N)NC(=O)[C@@H]1CCCN1C(=O)[C@H](CCCNC(=N)N)NC(=O)[C@@H]1CCCN1C(=O)[C@H](CC(C)C)NC(=O)[C@H](Cc1ccc(O)cc1)NC(=O)[C@@H]1CCCN1C(=O)[C@@H]1CCCN1C(=O)C(CCCCN)NC(=O)C(CC(=O)O)NC(=O)C(N)C(C)C)C(=O)NC(Cc1ccc(O)cc1)C(=O)NC(CC(N)=O)C(=O)NC(CCCNC(=N)N)C(N)=O (stereo partly specified) (H-[ξV][ξD][ξK]PPYLPRPRPPR[ξR][ξI][ξY][ξN][ξR]-NH2) | > 1000 | 1 (≈ 0.418 µM) | 8 (≈ 3.35 µM) | 4 (≈ 1.67 µM) | > 64 | > 64 |  |  |  |  |  |  |  |  |  | 
CC(C)C[C@H](NC(=O)[C@H](CC(C)C)NC(=O)[C@H](CC(C)C)NC(=O)[C@@H](CCCCN)NC(=O)[C@H](CC(C)C)NC(=O)[C@H](CC(C)C)NC(=O)[C@@H](CCCCN)NC(=O)[C@H](CC(C)C)NC(=O)[C@H](CC(C)C)NC(=O)[C@@H](CCCCN)NC(=O)[C@H](N)CCCCN)C(N)=O (H-[dK][dK]LL[dK]LL[dK]LLL-NH2) | 1000 |  |  |  | 8 (≈ 6.05 µM) |  | Active | Active; Few Membrane Perturbation Observed | Active | Active | 2.4 (≈ 1.82 µM) | 8 (≈ 6.05 µM) | Active | Active | Active; Few Membrane Perturbation Observed | Active
CC[C@H](C)[C@H](NC(=O)[C@H](CCCNC(=N)N)NC(=O)[C@H](CCCNC(=N)N)NC(=O)[C@@H]1CCCN1C(=O)[C@@H]1CCCN1C(=O)[C@H](CCCNC(=N)N)NC(=O)[C@@H]1CCCN1C(=O)[C@H](CCCNC(=N)N)NC(=O)[C@@H]1CCCN1C(=O)[C@H](CC(C)C)NC(=O)[C@H](Cc1ccc(O)cc1)NC(=O)[C@@H]1CCCN1C(=O)[C@@H]1CCCN1C(=O)C(CCCCN)NC(=O)C(CC(=O)O)NC(=O)C(N)C(C)C)C(=O)N[C@@H](Cc1ccc(O)cc1)C(=O)N[C@@H](CC(N)=O)C(=O)N[C@@H](CCCNC(=N)N)C(N)=O (stereo partly specified) (H-[ξV][ξD][ξK]PPYLPRPRPPRRIYNR-NH2) | > 1000 | 2 (≈ 0.837 µM) |  | 8 (≈ 3.35 µM) | > 64 | > 64 |  |  |  |  |  |  |  |  |  | 
CC[C@H]1OC(=O)[C@H](C)[C@@H](O[C@H]2C[C@@](C)(OC)[C@@H](O)[C@H](C)O2)[C@H](C)[C@@H](O[C@@H]2O[C@H](C)C[C@H](N(C)C)[C@H]2O)[C@](C)(O)C[C@@H](C)CN(C)[C@H](C)[C@@H](O)[C@]1(C)O |  |  |  |  |  |  | Active | Active; Few Membrane Perturbation Observed | Active | Active |  |  | Active | Active | Active; Few Membrane Perturbation Observed | Active
